Reference: patent US20250382298A1, “NITROGEN-CONTAINING COMPOUND AND USE THEREOF” (SUZHOU GENHOUSE BIO CO., LTD., priority 2022, published 2025)
pEC50, pIC50: −log10 of the molar value. Like-named read-outs stand apart in the source and are kept apart here.

Experiments:
OVCAR3 cells [1] = test: Detection of OVCAR3 cell proliferation activity by CTG method; format: cell-based; conditions: Homo sapiens, OVCAR-3, 168 h, CellTiter-Glo, 7 days
Description: (§1) This assay can be used to examine the potency of compounds in inhibiting the proliferation of tumor cells (OVCAR3, HT-29, BT-549, HCT-116). A lower IC50 value indicates high potency of the compound as a KIF18A inhibitor in the following assay setup,
1640 medium; fetal bovine serum; penicillin/streptomycin antibiotics purchased from Wisent; CellTiter-Glo (chemiluminescence detection reagent for cell viability) reagent purchased from Promega; OVCAR3 cell line purchased from Nanjing Cobioer Biosciences Co., Ltd.; Nivo multimode microplate reader (PerkinElmer),
OVCAR3 cells were seeded into a white 96-well plate, with 80 μL of cell suspension containing 2000 OVCAR3 cells added to each well. The cell plate was incubated in a CO2 incubator overnight.
A test compound was 5-fold diluted to the 8th concentration (i.e., from 2 mM to […]) using a multichannel pipette, with duplicate wells set up. To an intermediate plate was added 78 μL of medium, and the serially diluted compound was transferred to the corresponding wells of the intermediate plate at 2 μL/well. The mixture was mixed well and then transferred to the cell plate at 20 μL/well. The concentration of the compound transferred to the cell plate ranged from 10 μM to 0.026 nM. The cell plate was incubated in a CO2 incubator for 7 days. Another cell plate was prepared and read for signal values on the day of compound addition, and these values were used as the maximum values (the Max value in the equation below) in data analysis. To this cell plate was added the chemiluminescence detection reagent for cell viability at 25 μL/well, and the luminescence signals were stabilized by incubation at room temperature for 10 min. Readings were taken using the multimode microplate reader.
To the cell plate was added the chemiluminescence detection reagent for cell viability at 25 μL/well, and the luminescence signals were stabilized by incubation at room temperature for 10 mm. Readings were taken using the multimode microplate reader, […]

HT-29 cells [2] = test: Detection of cell proliferation activity by CCK8 method (HT-29); format: cell-based, human; conditions: CCK8, 96 h
Description: as §1
(§2) McCoy's 5A medium purchased from Sangon Biotech; CCK8 kit purchased from Beyotime; OVCAR3, HT-29, HCT-116, and BT-549 cells purchased from Shanghai Fuheng Biotechnology Co., Ltd.; multimode microplate reader (Thermo).
(§3) Cells at the logarithmic growth phase were taken, digested with a cell lysis buffer (trypsin), centrifuged, counted, and seeded into a 96-well plate at an appropriate cell density (BT549: 1500 cells/well in 1640 medium. HT-29 and HCT-116: 2000 cells/well in McCoy's 5A medium), with 180 μL per well, for a total of 60 wells. The surrounding wells were filled with an equal amount of PBS to prevent water evaporation from the edge wells. The next day after cell plating, the test compounds at different concentration gradients (with an initial final concentration of 10 μM, diluted in a 1:5 gradient to obtain 9 concentration gradients) were added to the wells. Three replicate wells were set up for each concentration point, and a corresponding DMSO negative control group was also set up. Detection: After 96 h of drug treatment, the test cell culture plate was removed from the incubator. All the liquid in the 96-well plate was aspirated, and 100 μL of medium containing 10% CCK8 solution was added to each well. The plate was then incubated at 37° C. for 2 h (the OD450 of the DMSO group reached 1.5 or more), and the absorbance at 450 nm was measured using a microplate reader
(§4) After the background value was subtracted from the measurement for each well, the inhibition rate was calculated. Inhibition Rate (%)=(1−Sample/Vehicle)×100. Sample is the luminescence value of the drug treatment group, and Vehicle is the luminescence value of the DMSO control group. A sigmoidal dose-survival rate curve was plotted using a non-linear regression model in the GraphPad Prism 7.0 software, and the IC50 values were calculated.

BT-549 cells = test: Detection of cell proliferation activity by CCK8 method (BT-549); format: cell-based; conditions: CCK8, 96 h
Description: as §1, §2, §3, §4

HCT-116 cells [3] = test: Detection of cell proliferation activity by CCK8 method (HCT-116); format: cell-based; conditions: CCK8, 96 h
Description: as §1, §2, §3, §4

KIF18A = KIF18A (Homo sapiens (Human), UniProt Q8NI77); test: KIF18A enzymatic activity inhibition, ADP-Glo kit; format: biochemical; conditions: 4 nM KIF18A, 30 μM ATP
KIF18A, sequence (Q8NI77 1-467): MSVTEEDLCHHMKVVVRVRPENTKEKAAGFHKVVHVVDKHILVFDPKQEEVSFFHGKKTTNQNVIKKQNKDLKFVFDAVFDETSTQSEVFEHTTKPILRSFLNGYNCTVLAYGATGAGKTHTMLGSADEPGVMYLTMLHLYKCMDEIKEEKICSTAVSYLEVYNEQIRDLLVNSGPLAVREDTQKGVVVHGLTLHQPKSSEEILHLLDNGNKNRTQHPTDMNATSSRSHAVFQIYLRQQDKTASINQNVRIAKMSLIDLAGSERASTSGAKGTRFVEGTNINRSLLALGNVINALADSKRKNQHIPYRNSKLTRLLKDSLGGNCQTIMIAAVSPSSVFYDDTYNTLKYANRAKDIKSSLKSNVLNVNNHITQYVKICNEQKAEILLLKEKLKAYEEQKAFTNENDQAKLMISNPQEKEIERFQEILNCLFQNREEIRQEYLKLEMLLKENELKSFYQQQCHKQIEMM
Procedure: In this experiment, an ADP-Glo kit was used to detect the inhibitory activity of the compounds against KIF18A. Each compound was prepared into a 10 mM stock solution with DMSO, which was then diluted at 1:5 to obtain 9 gradients with the initial final concentration set at 10 μM. Meanwhile, a control group and a blank group were also set up. The reaction buffer consisted of 15 mM Tris (pH 7.5), 10 mM MgCl2, and 0.01% Pluronic F-68. 4 nM KIF18A (1467) and the test compound were added to a 384-well plate and incubated at 37° C. for 20 mm. Then, 30 μM ATP was added to initiate the enzymatic reaction, and the plate was incubated at room temperature for 15 min. Finally, the ADP-Glo reagent was added to detect the luminescence intensity, where the luminescence intensity is directly proportional to the ADP content. Inhibition rate (%)=[…]. Sample signal is the value of the compound group, and DMSO signal is the value of the DMSO control group. Then, the inhibition rate at each concentration was calculated, and the IC50 was determined by fitting using the GraphPadPrism 7.0 software.

HT-29 cells [4] = test: Mitotic index analysis, pH3 expression in HT-29 cells; format: cell-based, human; conditions: Homo sapiens, 24 h treatment
Procedure: (§5) HCT-116 and HT-29 cells at the logarithmic growth phase were taken, digested with a cell lysis buffer (trypsin), centrifuged, counted, and seeded into a 96-well plate at an appropriate cell density (20000 cells/well), with 100 μL per well. The surrounding wells were filled with an appropriate amount of PBS to prevent water evaporation. The next day, the cells were treated with the compounds at different concentrations (with a starting concentration of 10 μM, 3-fold diluted to obtain 9 concentration gradients). After 24 h, the medium was aspirated, and the cells were washed twice with 100 μL of PBS. The cells were then fixed with 4% paraformaldehyde and incubated at room temperature for 15 min. The fixative solution was discarded, and the cells were washed with PBS. Then, 150 μL of specialized blocking solution (containing 1% Triton-100) was added to each well for blocking at room temperature for 2 h, and the plate was washed with PBS to remove excess blocking solution. Anti-phistone H3 (pH3) was diluted at a ratio of 1:1000 with a blocking solution containing 0.033% Triton-100, and a blank control group was set up. Then, incubation was performed at 4° C. overnight. The next day, the plate was washed twice with 1×PBST. Anti-rabbit-IgG (H+L) (CST) and DRAQ5 (Thermofisher) were each diluted at an appropriate ratio with a blocking solution containing 0.033% Triton-100 (secondary antibody: 1:2000; DRAQ5: 1:10000). Then, incubation was performed at room temperature for 2 h. The plate was washed twice with 1×PBST and once with PBS. Fluorescence signals at 700 nm and 800 nm were detected using a Li—COR Odyssey two-color near-infrared laser imager. Calculation was performed as follows: pH3 expression (%)=(Cmpd dose/DMSO control)×100. Cmpd dose is the value of the drug treatment group, and DMSO control is the value of the DMSO control group. The EC50 values were determined by fitting using the GraphPad Prism 7.0 software.

HCT-116 cells [5] = test: Mitotic index analysis, pH3 expression in HCT-116 cells; format: cell-based; conditions: 24 h treatment
Procedure: as §5

OVCAR3 cells [6] = test: Detection of cell proliferation activity by CCK8 method (OVCAR3); format: cell-based
Description: as §1, §2, §3, §4

[7] = Pharmacokinetic test in mice; format: in vivo; conditions: BALB/c mice; for AUC / Cmax / half-life: mouse, plasma; for half-life: read-out: t½ (converted)
Procedure: In this example, the pharmacokinetic behavior of the compounds after intravenous injection (IV) and intragastric (PO) administration in BALB/c mice was tested.
On the day of administration, mice were weighed for actual body weight and the administration volume was calculated. Each compound was tested in two groups with 9 mice in each group; one group was subjected to administration by single intravenous injection, and the other group of mice was subjected to single intragastric administration. Whole blood samples were collected via the orbit at prescribed time points (0.25 h, 0.5 h, 1 h, 2 h, 4 h, 8 h, and 24 h after administration). After blood sample collection, the samples were immediately transferred to labeled commercial sample tubes containing K2-EDTA (0.85-1.15 mg), followed by centrifugation (3200×g, 4° C., 10 min) and plasma collection. The plasma was transferred to a pre-cooled centrifuge tube, frozen in dry ice, and then stored in an ultra-low temperature freezer at −60° C. or lower until the LC-MS/MS analysis.
Plasma concentrations were determined by the LC-MS/MS method. Plasma drug concentration data for the compounds were processed using a non-compartmental model in the WinNonlin Version 6.3 (Pharsight, Mountain View, CA) pharmacokinetic software. The relevant pharmacokinetic parameters were calculated by a linear-log trapezoidal method.

[8] = Homo sapiens, OVCAR-3, CCK8, 96 h

Row | SMILES | pIC50 (HT-29 cells [2]; Homo sapiens) | pIC50 (BT-549 cells; Homo sapiens) | pIC50 (HCT-116 cells [3]; Homo sapiens) | pIC50 (KIF18A) | pEC50 (HT-29 cells [4]) | pEC50 (HCT-116 cells [5]; Homo sapiens) | pIC50 (OVCAR3 cells [6]; [8]) | F ([7]; PO @30mpk) | AUC ([7]; 30 mg/kg, PO @30mpk) | Cmax ([7]; 30 mg/kg, PO @30mpk) | half-life ([7]; 30 mg/kg, PO @30mpk) | further results
1 | CC1(S(=O)(=O)Nc2ccc(C(=O)Nc3cn4ccnc4c(N4CCC(F)(F)CC4)n3)c(N3CCC4(CC3)CC4)c2)CC1 [Compound 13] | 6.88 | 6.96 | < 5.00 | 6.73 | 6.63 | < 5.00 |  |  |  |  |  | pIC50 (OVCAR3 cells [1]): 7.48
2 | Cn1ccc2cc(NC(=O)c3ccc(NS(=O)(=O)CCO)cc3N3CCC4(CC3)CC4)nc(N3CCC(F)(F)CC3)c21 [Compound 18] | 6.47 | 6.61 | < 5.00 | 7.03 | 7.06 | < 5.00 |  |  |  |  |  | pIC50 (OVCAR3 cells [1]): 7.03
3 | O=C(Nc1cn2ccnc2c(N2CCC(F)(F)CC2)n1)c1cnc(NS(=O)(=O)CCO)cc1N1CCC2(CC1)CC2 [Compound 38] |  |  |  | 8.12 |  |  |  |  |  |  |  | pIC50 (OVCAR3 cells [6]; CCK8, 96 h): 7.92; pIC50 (HT-29 cells [2]): 6.88; pIC50 (BT-549 cells): 7.50; pIC50 (HCT-116 cells [3]): < 5.00; pEC50 (HCT-116 cells [5]): < 5.00
4 | O=C(Nc1cc2ncccc2c(N2CCC(F)(F)CC2)n1)c1ccc(NS(=O)(=O)CCO)cc1N1CCC2(CC1)CC2 [Compound 40] | 6.75 | 6.66 | < 5.00 | 7.20 |  | < 5.00 | 7.17 |  |  |  |  | 
5 | CS(=O)(=O)Nc1ccc(C(=O)Nc2cn3c(F)cnc3c(N3CCC(F)(F)CC3)n2)c(N2CC3CCC(C3)C2)c1 [Compound 52] | 7.12 | 6.68 | < 5.00 | 7.66 | 7.37 | < 5.00 | 7.28 | 107% | 269 µM·h | 14.1 µM | 39 h | 
6 | CS(=O)(=O)Nc1ccc(C(=O)Nc2cc3nccnc3c(N3CCC(F)(F)CC3)n2)c(N2CCC3(CC2)CC3)c1 [Compound 70] | 7.16 | 7.04 | < 5.00 | 7.02 | 7.47 | < 5.00 | 7.50 |  |  |  |  | 

More lines, in order of rising pIC50 (HT-29 cells [2]; Homo sapiens), values ahead:

Row | pIC50 (HT-29 cells [2]; Homo sapiens) | pIC50 (BT-549 cells; Homo sapiens) | pIC50 (HCT-116 cells [3]; Homo sapiens) | pIC50 (KIF18A) | pEC50 (HT-29 cells [4]) | pEC50 (HCT-116 cells [5]; Homo sapiens) | pIC50 (OVCAR3 cells [6]; [8]) | F ([7]; PO @30mpk) | AUC ([7]; 30 mg/kg, PO @30mpk) | Cmax ([7]; 30 mg/kg, PO @30mpk) | half-life ([7]; 30 mg/kg, PO @30mpk) | SMILES | further results
7 | 7.38 | 7.11 | < 5.00 | 7.42 | 7.61 | < 5.00 | 7.69 | 72% | 69.1 µM·h | 4.66 µM | 3.8 h | O=C(Nc1cc2nccnc2c(N2CCC(F)(F)CC2)n1)c1ccc(NS(=O)(=O)CCO)cc1N1CC2CCC(C2)C1 [Compound 73] | 
8 | 7.39 | 7.27 | < 5.00 | 7.72 | 7.70 | < 5.00 | 7.84 |  |  |  |  | CS(=O)(=O)Nc1ccc(C(=O)Nc2cn3cnnc3c(N3CCC(F)(F)CC3)n2)c(N2CC3CCC(C3)C2)c1 [Compound 65] | F ([7]; PO @5mpk): 82%; AUC ([7]; 5 mg/kg, PO @5mpk): 19.9 µM·h; Cmax ([7]; 5 mg/kg, PO @5mpk): 3.56 µM; half-life ([7]; 5 mg/kg, PO @5mpk): 3.9 h
9 | 7.47 | 7.50 | < 5.00 | 7.55 | 7.57 | < 5.00 | 7.84 | 44% | 154 µM·h | 6.98 µM | 146 h | CS(=O)(=O)Nc1ccc(C(=O)Nc2cn3ncnc3c(N3CCC(F)(F)CC3)n2)c(N2CCC3(CC2)CC3)c1 [Compound 57] | 
10 | 7.60 | 6.92 | < 5.00 | 7.39 | 7.87 | < 5.00 | 7.79 | 142% | 436 µM·h | 23.6 µM | 80.8 h | Cn1ncc2cc(NC(=O)c3ccc(NS(C)(=O)=O)cc3N3CC4CCC(C4)C3)nc(N3CCC(F)(F)CC3)c21 [Compound 56] | 
11 | 7.94 | 7.40 | < 5.00 | 7.59 | 8.32 | < 5.00 | 8.19 | 385% | 221 µM·h | 20.5 µM | 8.2 h | CS(=O)(=O)Nc1ccc(C(=O)Nc2cc3cn[nH]c3c(N3CCC(F)(F)CC3)n2)c(N2CC3CCC(C3)C2)c1 [Compound 69] | 
